The experiment has as its target T1, rat GPR14 (U-II receptor) (Rattus norvegicus, UniProt P49684).
T1 construct: expressed in transfected cells
T1 sequence (P49684 1-386): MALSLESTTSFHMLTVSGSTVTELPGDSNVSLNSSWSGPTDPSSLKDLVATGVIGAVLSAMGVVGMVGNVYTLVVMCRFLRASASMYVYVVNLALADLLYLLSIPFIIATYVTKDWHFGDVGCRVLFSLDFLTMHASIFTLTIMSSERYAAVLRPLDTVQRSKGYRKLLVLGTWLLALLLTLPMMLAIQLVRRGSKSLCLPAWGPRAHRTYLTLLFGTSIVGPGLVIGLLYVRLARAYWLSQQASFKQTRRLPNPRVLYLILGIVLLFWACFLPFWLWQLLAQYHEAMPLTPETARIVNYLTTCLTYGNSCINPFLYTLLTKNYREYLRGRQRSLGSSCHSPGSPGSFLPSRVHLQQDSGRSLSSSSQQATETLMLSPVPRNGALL
The experiment in a line: Rat UII Calcium Mobilization FLIPR Assay. The conditions noted are these: for inhibition at 10 µM / inhibition at 50 µM: CHO, 5 min, agonist-induced Ca2+ mobilization (FLIPR), CHO cells with rat UII receptor; for inhibition at 10 µM: 10 μM compound, read-out: % I @ 10; for inhibition at 50 µM: 50 μM compound, read-out: % I @ 50; for IC50: Inhibition of Acetyl-cyclic[Cys-Phe-Trp-Lys-(2-Nal)-Cys]-NH2 induced Ca2+ mobilization (FLIPR) in CHO cells transfected with rat UII receptor, read-out: IC50. The class given is cell-based. The text has this:
To derive these cells, the complete coding sequence of rat U-II (Genbank Accession No. U32673) was amplified by nested PCR from rat heart marathon-Ready cDNA. […] The PCR products were cloned into pcDNA3 (Invitrogen) digested with EcoR I and Xba I. Clones containing rat U-II receptor were verified by complete sequencing of the U-II receptor insert to ensure a lack of PCR-introduced errors. The constructed vector was transfected into CHO cells by using lipofectamine (GIBCO BRL). CHO cells with high expression of rat U-II receptor were selected and established as stable cell lines by using G418. CHO cells were seeded at 25,000 cells per well into 96-well, black-wall, clear-bottom microtiter plates 24 h before assay. Cells in culture media (DMEM/F12 containing 15 mM HEPES, L-glutamine, pyridoxine hydrochloride; 10% fetal bovine serum; 1 mg/mL G418 sulfate; antibiotic-antimycotic; pH 7.4) were loaded with proprietary dye, from the FLIPR Calcium Assay Kit (Molecular Devices), prepared in assay buffer (Hanks Balanced Salts Solution, 20 mM HEPES, 0.1% BSA, 2.5 mM probenecid, pH 7.4), and incubated for 1 h at 37° C. Calcium mobilization determinations were performed at room temperature (23° C.).
Background: A change in cytosolic calcium serves as a functional read-out for many receptors and channels.

Consider 23 compounds from US8193191B2, “Urotensin II receptor antagonists” (Janssen Pharmaceutica N.V., priority 2006, dated 2012).

Several values for one entry are separate records, joined by “and”; a condition that tells them apart may be missing. Equal entries are not always repeated.

With `COc1ccc(CN2C(=O)c3c(Cl)ccc(N4CCN([C@H](C)c5ccccc5)CC4)c3C2=O)cc1OC` [Cpd 10, 4-chloro-2-(3,4-dimethoxy-benzyl)-7-[4-(1R)-(1-phenyl-ethyl)-piperazin-1-yl]-isoindole-1,3-dione], the inhibition at 10 µM stood at 100%, the inhibition at 50 µM was 106% and the IC50 is 0.21 µM.

Regarding `COc1cc2c(cc1OC)C(N1C(=O)c3cccc(N4CCN(Cc5ccccc5)CC4)c3C1=O)CC2` (stereo not drawn) [Cpd 11, 4-(4-benzyl-piperazin-1-yl)-2-(5,6-dimethoxy-indan-1-yl)-isoindole-1,3-dione], the inhibition at 10 µM was determined as 100%, the inhibition at 50 µM amounted to 101% and the IC50 turned out to be 0.34 µM.

Regarding `COc1ccc(CN2C(=O)c3cccc(N4CCN([C@@H](C)c5ccccc5)CC4)c3C2=O)cc1OC` [Cpd 14, 2-(3,4-dimethoxy-benzyl)-4-[4-(1S)-(1-phenyl-ethyl)-piperazin-1-yl]-isoindole-1,3-dione], the inhibition at 10 µM was found to be 98%, the inhibition at 50 µM was 101% and the half-maximal inhibitory concentration (IC50) was found to be 0.49 µM.

As for `COc1ccc(CN2C(=O)c3cccc(N4CCN(Cc5c(F)cccc5F)CC4)c3C2=O)cc1OC` [Cpd 16, 4-[4-(2,6-difluoro-benzyl)-piperazin-1-yl]-2-(3,4-dimethoxy-benzyl)-isoindole-1,3-dione], the inhibition at 10 µM is 91%; the inhibition at 50 µM turned out to be 97%; the 50% inhibitory concentration (IC50) was 0.86 µM and 1.1 µM.

On to `COc1ccc(CN2C(=O)c3cccc(N4CCN(C5CCc6ccccc65)CC4)c3C2=O)cc1OC` (stereo not drawn) [Cpd 20, 2-(3,4-dimethoxy-benzyl)-4-(4-indan-1-yl-piperazin-1-yl)-isoindole-1,3-dione], for which the inhibition at 10 µM was 78%, the inhibition at 50 µM was determined as 15% and the IC50 is 1.5 µM.

Take `CCOc1cc(CN2C(=O)c3cccc(N4CCN([C@H](C)c5ccccc5)CC4)c3C2=O)ccc1OC` [Cpd 21, 2-(3-ethoxy-4-methoxy-benzyl)-4-[4-(1R)-(1-phenyl-ethyl)-piperazin-1-yl]-isoindole-1,3-dione]: the inhibition at 10 µM is 90%, the inhibition at 50 µM is 98% and the IC50 stood at 1.7 µM.

Consider `COc1ccc(CN2C(=O)c3cccc(N4CCN(CCc5ccccc5)CC4)c3C2=O)cc1OC` [Cpd 22, 2-(3,4-dimethoxy-benzyl)-4-(4-phenethyl-piperazin-1-yl)-isoindole-1,3-dione], for which the inhibition at 10 µM is 100%, the inhibition at 50 µM was determined as 100% and the half-maximal inhibitory concentration (IC50) worked out at 1.9 µM.

Turning to `Cc1nn(C)c(C)c1CN1C(=O)c2cccc(N3CCN(Cc4ccccc4)CC3)c2C1=O` [Cpd 23, 4-(4-benzyl-piperazin-1-yl)-2-(1,3,5-trimethyl-1H-pyrazol-4-ylmethyl)-isoindole-1,3-dione], the inhibition at 10 µM amounted to 62%, the inhibition at 50 µM is 101% and the concentration for half-maximal inhibition (IC50) came to 1.9 µM.

Regarding `COc1ccc(CN2C(=O)c3cccc(N4CCN(Cc5ccc(F)cc5F)CC4)c3C2=O)cc1OC` [Cpd 24, 4-[4-(2,4-difluoro-benzyl)-piperazin-1-yl]-2-(3,4-dimethoxy-benzyl)-isoindole-1,3-dione], the inhibition at 10 µM is 96%, the inhibition at 50 µM came out at 100% and the IC50 came to 2.1 µM.

For `COc1ccc(CCN2C(=O)c3cccc(N4CC5CCC(C4)N5Cc4ccccc4)c3C2=O)cc1OC` [Cpd 25, 4-(8-benzyl-3,8-diaza-bicyclo[3.2.1]oct-3-yl)-2-[2-(3,4-dimethoxy-phenyl)-ethyl]-isoindole-1,3-dione], the inhibition at 10 µM came out at 90%, the inhibition at 50 µM came out at 100% and the half-maximal inhibitory concentration (IC50) amounted to 2.8 µM.

As to `COc1cc(CN2C(=O)c3cccc(N4CC5CCC(C4)N5Cc4ccccc4)c3C2=O)cc(OC)c1OC` [Cpd 26, 4-(8-benzyl-3,8-diaza-bicyclo[3.2.1]oct-3-yl)-2-(3,4,5-trimethoxy-benzyl)-isoindole-1,3-dione], the inhibition at 10 µM turned out to be 81%, the inhibition at 50 µM worked out at 94% and the concentration for half-maximal inhibition (IC50) worked out at 3.4 µM.

As for `COc1ccc(CN2C(=O)c3cccc(N4CCN(C(c5ccccc5)C5CC5)CC4)c3C2=O)cc1OC` (stereo not drawn) [Cpd 27, 4-[4-(cyclopropyl-phenyl-methyl)-piperazin-1-yl]-2-(3,4-dimethoxy-benzyl)-isoindole-1,3-dione], the inhibition at 10 µM was 78%, the inhibition at 50 µM came out at 100% and the IC50 came out at 3.8 µM.

`COc1ccc(CN2C(=O)c3cccc(N4CCN(Cc5cc(F)ccc5F)CC4)c3C2=O)cc1OC` [Cpd 29, 4-[4-(2,5-difluoro-benzyl)-piperazin-1-yl]-2-(3,4-dimethoxy-benzyl)-isoindole-1,3-dione]: the inhibition at 10 µM was found to be 77%, the inhibition at 50 µM stood at 95% and the IC50 came out at 4.4 µM.

Take `COc1ccc([C@H](CC(=O)O)N2C(=O)c3cccc(N4CCN([C@H](C)c5ccccc5)CC4)c3C2=O)cc1OC` [Cpd 30, (S)-3-(3,4-dimethoxy-phenyl)-3-{1,3-dioxo-4-[4-(1R)-(1-phenyl-ethyl)-piperazin-1-yl]-1,3-dihydro-isoindol-2-yl}-propionic acid]: the inhibition at 10 µM was found to be 80%, the inhibition at 50 µM came to 99% and the IC50 amounted to 4.4 µM.

Regarding `COc1ccc(CN2C(=O)c3cccc(N4CCN(Cc5ccccc5Cl)CC4)c3C2=O)cc1OC` [Cpd 31, 4-[4-(2-chloro-benzyl)-piperazin-1-yl]-2-(3,4-dimethoxy-benzyl)-isoindole-1,3-dione], the inhibition at 10 µM is 65%, the inhibition at 50 µM is 89% and the 50% inhibitory concentration (IC50) came out at 4.5 µM.

On to `COc1ccc(CN2C(=O)c3cccc(N4CC5CCC(C4)N5C(C)c4ccccc4)c3C2=O)cc1OC` (stereo not drawn) [Cpd 32, 2-(3,4-dimethoxy-benzyl)-4-[8-(1-phenyl-ethyl)-3,8-diaza-bicyclo[3.2.1]oct-3-yl]-isoindole-1,3-dione], for which the inhibition at 10 µM stood at 73%, the inhibition at 50 µM was 93% and the 50% inhibitory concentration (IC50) stood at 4.9 µM.

For `COc1ccc(CN2C(=O)c3cccc(N4CCN(Cc5ccccc5C)CC4)c3C2=O)cc1OC` [Cpd 33, 2-(3,4-dimethoxy-benzyl)-4-[4-(2-methyl-benzyl)-piperazin-1-yl]-isoindole-1,3-dione], the inhibition at 10 µM came out at 60%, the inhibition at 50 µM worked out at 97% and the IC50 came to 5 µM.

Take `COc1cc(CN2C(=O)c3cccc(N4CCN(Cc5ccccc5)CC4)c3C2=O)cc(OC)c1OC` [Cpd 34, 4-(4-benzyl-piperazin-1-yl)-2-(3,4,5-trimethoxy-benzyl)-isoindole-1,3-dione]: the inhibition at 10 µM amounted to 64%, the inhibition at 50 µM came to 94% and the IC50 turned out to be 5.9 µM.

As for `C#CC(c1ccccc1)N1CCN(c2cccc3c2C(=O)N(Cc2ccc(OC)c(OC)c2)C3=O)CC1` (stereo not drawn) [Cpd 35, 2-(3,4-dimethoxy-benzyl)-4-[4-(1-phenyl-prop-2-ynyl)-piperazin-1-yl]-isoindole-1,3-dione], the inhibition at 10 µM is 55%, the inhibition at 50 µM came to 65% and the IC50 stood at 6.3 µM.

For the compound `COc1ccc(CN2C(=O)c3cccc(N4CCN(Cc5cccc(C)c5)CC4)c3C2=O)cc1OC` [Cpd 36, 2-(3,4-dimethoxy-benzyl)-4-[4-(3-methyl-benzyl)-piperazin-1-yl]-isoindole-1,3-dione], the inhibition at 10 µM came to 63%, the inhibition at 50 µM was found to be 82% and the IC50 came out at 6.5 µM.

`COc1ccc(CN2C(=O)c3cccc(N[C@@H]4CCCC[C@H]4NCc4ccccc4)c3C2=O)cc1OC` [Cpd 37, 4-(1R,2R)-(2-benzylamino-cyclohexylamino)-2-(3,4-dimethoxy-benzyl)-isoindole-1,3-dione]: the inhibition at 10 µM was 62%, the inhibition at 50 µM is 71% and the IC50 amounted to 6.9 µM.

Take `COc1ccc(CN2C(=O)c3cccc(N4CCN(Cc5ccccc5C#N)CC4)c3C2=O)cc1OC` [Cpd 38, 2-{4-[2-(3,4-dimethoxy-benzyl)-1,3-dioxo-2,3-dihydro-1H-isoindol-4-yl]-piperazin-1-ylmethyl}-benzonitrile]: the inhibition at 10 µM came out at 56%, the inhibition at 50 µM is 94% and the IC50 worked out at 7.6 µM.

`O=C1c2cccc(N3CC4CCC(C3)N4Cc3ccccc3)c2C(=O)N1Cc1ccncc1` [Cpd 39, 4-(8-benzyl-3,8-diaza-bicyclo[3.2.1]oct-3-yl)-2-pyridin-4-ylmethyl-isoindole-1,3-dione]: the inhibition at 10 µM worked out at 47%, the inhibition at 50 µM is 101% and the concentration for half-maximal inhibition (IC50) is 8.9 µM.

In general, IC50 refers to the concentration at which inhibition is half-maximal.
